What all share (assay): Competitive cysteine profiling of cell lysate with desthiobiotin iodoacetamide probe (96-well sample prep)
What all share (assay type): binding

Assay [1] concerns the target T1, cysteine residue illustrated in Table 1A or Table 2A (Homo sapiens, UniProt O75155).
T1 construct: Cells were resuspended in cold PBS on ice and sonicated with a probe sonicator to achieve lysis; endogenous in cells
Conditions: UniProt O75155; 100 uM. In a few lines:
(§1)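 Sonicated cell lysate (5 mg/ml proteome) was preincubated with compound 1 h at 25 °C, then labelled with desthiobiotin iodoacetamide probe 1 h at 25 °C. After reduction, alkylation and trypsin digestion, probe-labelled peptides were streptavidin-enriched and eluted for mass-spectrometric analysis.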

For assay [2], the target named is T2, cysteine residue illustrated in Table 1A or Table 2A (Homo sapiens, UniProt Q86UW9).
T2 construct: Cells were resuspended in cold PBS on ice and sonicated with a probe sonicator to achieve lysis; endogenous in cells
The settings on record: UniProt Q86UW9; 100 uM. Summed up: as §1

The target in assay [3] is T3, cysteine residue illustrated in Table 1A or Table 2A (Homo sapiens, UniProt Q8N9I9).
T3 construct: Cells were resuspended in cold PBS on ice and sonicated with a probe sonicator to achieve lysis; endogenous in cells
The settings on record: UniProt Q8N9I9; 100 uM. Summed up:
as §1

In assay [4] the target is T4, cysteine residue illustrated in Table 1A or Table 2A (Homo sapiens, UniProt Q8WV16).
T4 construct: Cells were resuspended in cold PBS on ice and sonicated with a probe sonicator to achieve lysis; endogenous in cells
The settings on record: UniProt Q8WV16; 100 uM. Summed up:
as §1

Assay [5] relates to cysteine residue illustrated in Table 1A or Table 2A. The settings on record: for KB02_100 uM_percent_inhibition: KB02 at 100 uM; for KB03_100 uM_percent_inhibition: KB03 at 100 uM. In a few lines: as §1
Assay [6] addresses T5, cysteine residue illustrated in Table 1A or Table 2A (Homo sapiens, UniProt O60826).
T5 construct: Cells were resuspended in cold PBS on ice and sonicated with a probe sonicator to achieve lysis; endogenous in cells
Conditions: UniProt O60826; 100 uM. Summed up:
as §1

The target in assay [7] is T6, cysteine residue illustrated in Table 1A or Table 2A (Homo sapiens, UniProt O94941).
T6 construct: Cells were resuspended in cold PBS on ice and sonicated with a probe sonicator to achieve lysis; endogenous in cells
Conditions: UniProt O94941. Summed up:
as §1

Assay [8] has as its target T7, cysteine residue illustrated in Table 1A or Table 2A (Homo sapiens, UniProt Q5T6F0).
T7 construct: Cells were resuspended in cold PBS on ice and sonicated with a probe sonicator to achieve lysis; endogenous in cells
The settings on record: UniProt Q5T6F0; 100 uM. In a few lines: as §1

For assay [9], the target named is T8, cysteine residue illustrated in Table 1A or Table 2A (Homo sapiens, UniProt Q66K64).
T8 construct: Cells were resuspended in cold PBS on ice and sonicated with a probe sonicator to achieve lysis; endogenous in cells
The settings on record: UniProt Q66K64; 100 uM. In a few lines: as §1

The target of assay [10] is T9, cysteine residue illustrated in Table 1A or Table 2A (Homo sapiens, UniProt Q6P1J9).
T9 construct: Cells were resuspended in cold PBS on ice and sonicated with a probe sonicator to achieve lysis; endogenous in cells
The settings on record: UniProt Q6P1J9; 100 uM. Summed up: as §1

Assay [11] has as its target T10, cysteine residue illustrated in Table 1A or Table 2A (Homo sapiens, UniProt Q8N3P4).
T10 construct: Cells were resuspended in cold PBS on ice and sonicated with a probe sonicator to achieve lysis; endogenous in cells
Conditions: UniProt Q8N3P4. In a few lines: as §1

Assay [12] deals with T11, cysteine residue illustrated in Table 1A or Table 2A (Homo sapiens, UniProt Q8NHY2).
T11 construct: Cells were resuspended in cold PBS on ice and sonicated with a probe sonicator to achieve lysis; endogenous in cells
Conditions: UniProt Q8NHY2; 100 uM. Summed up: as §1

For assay [13], the target named is T12, cysteine residue illustrated in Table 1A or Table 2A (Homo sapiens, UniProt Q96GG9).
T12 construct: Cells were resuspended in cold PBS on ice and sonicated with a probe sonicator to achieve lysis; endogenous in cells
The settings on record: UniProt Q96GG9; 100 uM. Summed up:
as §1

Assay [14] deals with T13, cysteine residue illustrated in Table 1A or Table 2A (Homo sapiens, UniProt Q9P000).
T13 construct: Cells were resuspended in cold PBS on ice and sonicated with a probe sonicator to achieve lysis; endogenous in cells
The settings on record: UniProt Q9P000; 100 uM. In a few lines: as §1

The record followed here is US20200239530A1, “COMPOUNDS AND METHODS OF MODULATING PROTEIN DEGRADATION” (Vividion Therapeutics, Inc., priority 2017, published 2020).

`COc1ccc2c(c1)CCCN2C(=O)CCl` [KB02]: the “KB02_100 uM_percent_inhibition” value in assay [1] was found to be 24%; in assay [2] it was 28%; in [3], 8%; in assay [4] it was 16%; in [5] (c0 = UniProt of target protein, one grid row per cysteine site) it was 24%; in assay [5] (target protein = UniProt accession, one row per cysteine site), 24%. For the same compound, in assay [5] (target protein = UniProt id in c0 of the row (one row per cysteine site)), the “KB02_100 uM_percent_inhibition” value came out at 24%.
As for `C=CC(=O)N(c1ccccc1)c1ccc(Br)cc1` [KB05], the “KB05_100 uM_percent_inhibition” value in [6] is recorded as 22%; in assay [7] (KB05 100 uM), 40%; in [8], 31%; in [9], 11%; in assay [10], 33%; in assay [11] (KB05 100 uM), 55%. For the same compound, the “KB05_100 uM_percent_inhibition” value in assay [12] was found to be 43%; in [4] it was 26%; in assay [13], 10%; in assay [14] it was 19%.
Take `O=C(CCl)Nc1cc(C(F)(F)F)cc(C(F)(F)F)c1` [KBO3]: the “KB03_100 uM_percent_inhibition” value was 7% in assay [6]; 31% in [1]; 63% in [7] (KB03 100 uM); 11% in assay [8]; 31% in assay [9]; 24% in assay [10]. The “KB03_100 uM_percent_inhibition” value in [2] was determined as 8%; in assay [11] (KB03 100 uM) it was 44%; in assay [3], 10%; in assay [12], 27%; in assay [13], 26%; in assay [14] it was 30%. Moreover, the “KB03_100 uM_percent_inhibition” value in [5] (target protein = UniProt accession, one row per cysteine site, UniProt Q9P0J7) worked out at 90%; in [5] (target protein = UniProt accession, one row per cysteine site, UniProt Q08380), 69%.
